Here are results for 8 molecules from ChEMBL document CHEMBL1138235, “Discovery of dibenzo[c,f][2,7]naphthyridines as potent and selective 3-phosphoinositide-dependent kinase-1 inhibitors” (J Med Chem, 2007).

Test [1] in a line: Growth inhibition of PC-3mm2 cells. The conditions noted are these: Homo sapiens, PC3MM2. Format: functional, cell-based.
Test [2] relates to HCT-116. Description: Growth inhibition of HCT116 cells. The conditions noted are these: Homo sapiens. The class given is functional, cell-based.
Test [3] has as its system SW-620. Put plainly: Growth inhibition of SW620 cells. The class given is functional, cell-based. The conditions noted are these: Homo sapiens.
Test [4] concerns the target MAP kinase-activated protein kinase 2 (Homo sapiens, UniProt P49137). Put plainly: Inhibition of MK2.
The test system of test [5] is MDA-MB-468. Description: Growth inhibition of MDA-MB-468 cells. The class given is functional, cell-based. The conditions noted are these: Homo sapiens.
The test system of test [6] is K562. Put plainly: Growth inhibition of K562 cells. Format: functional, cell-based. The conditions noted are these: Homo sapiens.
A short description of test [7]: Growth inhibition of M49-5 cells. Format: functional, cell-based. The conditions noted are these: Homo sapiens.
In test [8] the target is Inhibitor of NF-kappa-B kinase (IKK) (Homo sapiens, UniProt O14920+O15111+Q9Y6K9). Description: Inhibition of IKK. Format: protein-complex assay.
Inhibitor of NF-kappa-B kinase (IKK), sequence (O14920 whole entry): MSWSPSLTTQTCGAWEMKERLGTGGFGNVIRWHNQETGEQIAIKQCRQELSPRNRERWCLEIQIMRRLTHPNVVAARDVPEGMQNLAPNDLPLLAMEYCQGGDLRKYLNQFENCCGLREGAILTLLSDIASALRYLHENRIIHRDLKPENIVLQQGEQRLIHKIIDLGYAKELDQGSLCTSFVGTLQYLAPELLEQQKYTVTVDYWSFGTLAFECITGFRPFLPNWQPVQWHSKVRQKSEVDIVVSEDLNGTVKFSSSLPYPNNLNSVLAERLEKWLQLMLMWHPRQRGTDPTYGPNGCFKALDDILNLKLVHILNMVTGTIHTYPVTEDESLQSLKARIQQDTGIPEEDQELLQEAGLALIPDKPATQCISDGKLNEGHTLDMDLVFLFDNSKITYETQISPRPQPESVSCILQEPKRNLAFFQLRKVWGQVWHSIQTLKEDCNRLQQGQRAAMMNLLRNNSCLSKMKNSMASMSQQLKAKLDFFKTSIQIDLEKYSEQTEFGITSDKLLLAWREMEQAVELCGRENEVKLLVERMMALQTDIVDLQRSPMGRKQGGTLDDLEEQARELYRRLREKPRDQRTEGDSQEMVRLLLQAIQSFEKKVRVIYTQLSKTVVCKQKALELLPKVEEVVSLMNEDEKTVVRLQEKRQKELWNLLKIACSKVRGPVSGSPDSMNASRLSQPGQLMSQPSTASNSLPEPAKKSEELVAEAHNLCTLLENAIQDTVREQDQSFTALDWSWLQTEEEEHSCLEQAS
Inhibitor of NF-kappa-B kinase (IKK), sequence (O15111 whole entry): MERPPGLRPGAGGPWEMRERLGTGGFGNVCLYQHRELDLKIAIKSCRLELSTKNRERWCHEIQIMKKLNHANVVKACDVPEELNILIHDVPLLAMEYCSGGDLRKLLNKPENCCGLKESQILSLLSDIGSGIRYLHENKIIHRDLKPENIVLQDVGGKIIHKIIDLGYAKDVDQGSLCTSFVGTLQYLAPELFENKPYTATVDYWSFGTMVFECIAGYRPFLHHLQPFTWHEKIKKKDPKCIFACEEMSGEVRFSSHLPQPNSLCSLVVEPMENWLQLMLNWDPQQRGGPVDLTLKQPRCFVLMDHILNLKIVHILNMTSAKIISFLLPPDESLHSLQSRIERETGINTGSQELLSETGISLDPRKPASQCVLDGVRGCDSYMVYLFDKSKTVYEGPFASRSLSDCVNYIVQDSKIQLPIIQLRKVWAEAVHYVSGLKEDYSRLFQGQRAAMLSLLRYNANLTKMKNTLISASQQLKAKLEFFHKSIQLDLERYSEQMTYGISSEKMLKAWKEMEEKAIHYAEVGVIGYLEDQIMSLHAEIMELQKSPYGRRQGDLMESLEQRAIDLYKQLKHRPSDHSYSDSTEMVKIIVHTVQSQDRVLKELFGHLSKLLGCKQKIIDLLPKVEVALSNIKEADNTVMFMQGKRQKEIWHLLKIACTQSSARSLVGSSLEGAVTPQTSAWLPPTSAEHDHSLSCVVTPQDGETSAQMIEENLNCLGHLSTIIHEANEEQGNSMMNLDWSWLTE
Inhibitor of NF-kappa-B kinase (IKK), sequence (Q9Y6K9 whole entry): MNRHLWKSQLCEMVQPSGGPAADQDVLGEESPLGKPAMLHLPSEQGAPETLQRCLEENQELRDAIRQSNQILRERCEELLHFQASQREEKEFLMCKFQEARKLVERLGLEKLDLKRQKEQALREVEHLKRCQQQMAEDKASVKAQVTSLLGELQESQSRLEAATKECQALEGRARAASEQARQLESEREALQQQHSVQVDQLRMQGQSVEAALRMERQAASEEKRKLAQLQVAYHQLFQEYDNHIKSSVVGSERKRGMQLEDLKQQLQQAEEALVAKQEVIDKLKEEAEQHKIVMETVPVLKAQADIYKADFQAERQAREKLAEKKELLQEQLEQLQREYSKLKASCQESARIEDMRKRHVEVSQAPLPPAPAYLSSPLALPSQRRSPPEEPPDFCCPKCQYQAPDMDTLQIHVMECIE
In test [9] the target is Ribosomal protein S6 kinase beta-1 (Homo sapiens, UniProt P23443). Description: Inhibition of S6K.
Ribosomal protein S6 kinase beta-1, sequence (P23443 whole entry): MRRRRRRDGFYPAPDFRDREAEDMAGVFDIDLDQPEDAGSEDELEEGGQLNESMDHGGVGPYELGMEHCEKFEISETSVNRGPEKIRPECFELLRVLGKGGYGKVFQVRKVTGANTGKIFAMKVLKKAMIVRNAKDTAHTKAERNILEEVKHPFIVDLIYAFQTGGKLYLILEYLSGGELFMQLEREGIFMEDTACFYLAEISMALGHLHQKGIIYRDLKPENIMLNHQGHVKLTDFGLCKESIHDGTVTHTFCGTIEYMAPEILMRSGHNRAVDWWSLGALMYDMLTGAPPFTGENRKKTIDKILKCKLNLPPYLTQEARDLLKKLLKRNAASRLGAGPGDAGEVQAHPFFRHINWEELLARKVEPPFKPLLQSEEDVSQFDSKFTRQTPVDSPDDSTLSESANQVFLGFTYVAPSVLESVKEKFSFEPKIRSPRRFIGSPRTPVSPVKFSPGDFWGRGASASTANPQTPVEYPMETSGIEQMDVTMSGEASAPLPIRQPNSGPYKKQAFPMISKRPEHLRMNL
Test [10] deals with T1, Serine/threonine-protein kinase Sgk1 (Homo sapiens, UniProt O00141).
T1 sequence (O00141 whole entry): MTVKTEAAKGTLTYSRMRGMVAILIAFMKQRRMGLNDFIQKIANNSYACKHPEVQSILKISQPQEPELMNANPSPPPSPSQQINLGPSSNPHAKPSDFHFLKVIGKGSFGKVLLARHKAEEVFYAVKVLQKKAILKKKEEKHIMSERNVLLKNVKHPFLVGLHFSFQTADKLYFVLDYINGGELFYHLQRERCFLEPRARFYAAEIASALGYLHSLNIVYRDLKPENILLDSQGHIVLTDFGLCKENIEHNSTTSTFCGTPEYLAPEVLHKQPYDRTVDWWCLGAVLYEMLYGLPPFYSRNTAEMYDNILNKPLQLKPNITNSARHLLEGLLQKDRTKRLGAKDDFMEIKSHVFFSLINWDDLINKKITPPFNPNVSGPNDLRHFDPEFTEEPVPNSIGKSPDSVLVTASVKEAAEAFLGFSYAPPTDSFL
Description: Inhibition of SGK1.

The target of test [11] is Cyclin-dependent kinase 4 (Homo sapiens, UniProt P11802). Description: Inhibition of CDK4.
Cyclin-dependent kinase 4, sequence (P11802 whole entry): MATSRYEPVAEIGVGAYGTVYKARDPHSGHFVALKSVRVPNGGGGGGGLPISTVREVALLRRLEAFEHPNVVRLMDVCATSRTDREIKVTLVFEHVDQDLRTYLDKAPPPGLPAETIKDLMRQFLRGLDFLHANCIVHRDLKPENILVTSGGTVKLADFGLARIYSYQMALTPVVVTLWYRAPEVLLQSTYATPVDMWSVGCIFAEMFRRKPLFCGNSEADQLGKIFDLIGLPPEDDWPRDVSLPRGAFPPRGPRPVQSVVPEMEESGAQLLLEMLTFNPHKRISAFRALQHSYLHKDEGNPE
A short description of test [12]: Inhibition of CAMII. More on the design: species or system Homo sapiens.
Test [13] in a line: Inhibition of P38. More on the design: species or system Homo sapiens.
In test [14] the target is RAC-alpha serine/threonine-protein kinase (Homo sapiens, UniProt P31749). Put plainly: Inhibition of AKT.
RAC-alpha serine/threonine-protein kinase, sequence (P31749 whole entry): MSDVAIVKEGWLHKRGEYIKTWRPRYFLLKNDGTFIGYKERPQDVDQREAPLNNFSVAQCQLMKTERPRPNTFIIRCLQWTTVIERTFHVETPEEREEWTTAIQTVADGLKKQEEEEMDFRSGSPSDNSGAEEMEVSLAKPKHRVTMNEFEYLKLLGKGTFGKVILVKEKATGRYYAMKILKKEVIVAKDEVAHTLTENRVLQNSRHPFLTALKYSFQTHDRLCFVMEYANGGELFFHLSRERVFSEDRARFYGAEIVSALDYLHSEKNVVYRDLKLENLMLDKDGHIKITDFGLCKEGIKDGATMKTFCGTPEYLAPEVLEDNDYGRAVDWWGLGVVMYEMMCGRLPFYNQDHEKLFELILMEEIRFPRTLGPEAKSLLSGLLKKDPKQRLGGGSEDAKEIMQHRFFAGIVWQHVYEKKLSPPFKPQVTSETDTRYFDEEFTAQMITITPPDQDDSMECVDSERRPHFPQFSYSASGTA
The target of test [15] is Proto-oncogene tyrosine-protein kinase Src (Homo sapiens, UniProt P12931). Description: Inhibition of Src.
Proto-oncogene tyrosine-protein kinase Src, sequence (P12931 2-536 limits assumed): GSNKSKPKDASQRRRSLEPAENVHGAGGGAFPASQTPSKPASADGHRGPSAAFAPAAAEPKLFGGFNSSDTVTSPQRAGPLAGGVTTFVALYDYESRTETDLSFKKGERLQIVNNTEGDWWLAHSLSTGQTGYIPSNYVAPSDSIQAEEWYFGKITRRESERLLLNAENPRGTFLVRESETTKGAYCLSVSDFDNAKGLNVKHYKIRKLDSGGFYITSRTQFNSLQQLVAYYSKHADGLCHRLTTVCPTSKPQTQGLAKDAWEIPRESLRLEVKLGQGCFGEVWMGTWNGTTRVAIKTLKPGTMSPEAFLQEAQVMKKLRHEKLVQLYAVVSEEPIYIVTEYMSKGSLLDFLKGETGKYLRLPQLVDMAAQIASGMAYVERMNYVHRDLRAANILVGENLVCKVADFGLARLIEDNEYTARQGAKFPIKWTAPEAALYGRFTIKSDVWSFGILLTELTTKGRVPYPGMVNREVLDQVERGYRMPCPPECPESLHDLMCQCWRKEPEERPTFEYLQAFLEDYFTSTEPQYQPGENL
Test [16] can be described thus: Inhibition of MEK. The arrangement: species or system Homo sapiens.
Test [17] is described as follows: Inhibition of TPL2. The arrangement: species or system Homo sapiens.
Test [18] can be described thus: Inhibition of PKA. More on the design: species or system Homo sapiens.
For test [19], the system named is DU-145. Put plainly: Growth inhibition of DU145 cells. Format: functional, cell-based. The conditions noted are these: Homo sapiens.
Test [20] addresses T2, 3-phosphoinositide-dependent protein kinase 1 (Homo sapiens, UniProt O15530).
T2 sequence (O15530 whole entry): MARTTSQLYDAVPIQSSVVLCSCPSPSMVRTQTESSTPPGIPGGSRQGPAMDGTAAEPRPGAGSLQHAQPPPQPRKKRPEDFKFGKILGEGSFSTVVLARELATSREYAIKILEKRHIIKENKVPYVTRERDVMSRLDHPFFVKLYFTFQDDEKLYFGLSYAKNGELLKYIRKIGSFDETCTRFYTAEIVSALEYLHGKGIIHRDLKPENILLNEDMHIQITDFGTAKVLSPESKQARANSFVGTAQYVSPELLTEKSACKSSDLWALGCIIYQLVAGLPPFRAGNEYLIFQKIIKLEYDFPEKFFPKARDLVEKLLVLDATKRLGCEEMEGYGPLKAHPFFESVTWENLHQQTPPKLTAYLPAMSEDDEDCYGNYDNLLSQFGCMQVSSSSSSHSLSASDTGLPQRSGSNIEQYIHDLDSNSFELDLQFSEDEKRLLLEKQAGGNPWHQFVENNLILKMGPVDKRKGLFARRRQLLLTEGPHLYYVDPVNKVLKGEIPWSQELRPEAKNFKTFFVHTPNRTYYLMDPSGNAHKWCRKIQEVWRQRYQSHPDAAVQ
Put plainly: Inhibition of PDK1.

SMILES strings stand for the structures.

MAP kinase-activated protein kinase 2, sequence (P49137 whole entry): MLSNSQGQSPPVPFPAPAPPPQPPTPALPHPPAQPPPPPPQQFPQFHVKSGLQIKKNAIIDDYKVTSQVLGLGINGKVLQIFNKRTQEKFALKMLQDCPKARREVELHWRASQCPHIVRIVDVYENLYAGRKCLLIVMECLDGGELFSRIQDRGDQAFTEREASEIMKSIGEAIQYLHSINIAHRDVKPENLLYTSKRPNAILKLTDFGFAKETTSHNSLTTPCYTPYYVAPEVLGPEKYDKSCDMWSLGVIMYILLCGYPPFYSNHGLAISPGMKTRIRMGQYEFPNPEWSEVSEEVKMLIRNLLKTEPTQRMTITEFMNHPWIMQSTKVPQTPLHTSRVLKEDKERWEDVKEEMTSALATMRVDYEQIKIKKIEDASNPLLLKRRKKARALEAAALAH

On to `COc1cc2ncc3c(N)nc4c(C)c(N)ccc4c3c2cc1OC`, for which the IC50 is 4.3 µM in test [1]; 3.6 µM in test [2]; 3.9 µM in [3]; over 10 µM in [4]; 1.55 µM in test [5]; 0.48 µM in test [6]. In addition, the concentration for half-maximal inhibition (IC50) in test [7] is 0.35 µM; in test [8], over 10 µM; in test [9] it was over 10 µM; in test [10], over 10 µM; in [11] it was over 10 µM; in test [12] it was over 10 µM. Further, the IC50 in test [13], in test [14], in test [15], in test [16], in [17] and in test [18] was over 10 µM in each case. Further, it took 2.53 µM to reach half-maximal inhibition in test [19] (IC50).
For the molecule `COc1cc2c(cc1OCCN1CCOCC1)ncc1c(N)nc3c(C)c(N)ccc3c12`, the IC50 in [20] worked out at 0.06 µM.
Molecule `COc1cc2c(cc1OCCCN(C)C)ncc1c(N)nc3c(C)c(N)ccc3c12` showed an IC50 in test [20] of 0.2 µM. Compared with the last molecule, the IC50 is about 3.3-fold higher.
On to `COc1cc2ncc3c(N)nc4c(C)c(Cl)ccc4c3c2cc1OC`, for which the IC50 in test [20] was 2.12 µM.
Turning to `COc1cc2ncc3cnc4ccccc4c3c2cc1OC`, the IC50 in test [20] amounted to 7.45 µM.
In the case of `COc1cc2c(cc1NCCN(C)C)ncc1c(N)nc3c(C)c(N)ccc3c12`, in test [20], the IC50 worked out at 2.49 µM.
With `COc1cc2c(cc1F)ncc1c(N)nc3c(C)c(N)ccc3c12`, the IC50 in test [20] turned out to be 0.58 µM.
On the same count and under the same terms, to `COc1cc2ncc3c(N)nc4c(C)c(O)ccc4c3c2cc1OC` belongs 0.04 µM.
